Assay results from US6730661B1, “Nutritional composition which contain non-digestible polysaccharides and use thereof to reduce transport through tight junctions” (N. V. Nutricia, priority 1999, dated 2004).

Legend:
[1] = system: duodenum biopsies of a child suffering from microvillus inclusion disease (MVID); experiment: Permeability to HRP of duodenal suction biopsies of a microvillus inclusion disease patient in Ussing chamber; parameters: species or system human; conditions: after adding 4.2 g/l to luminal compartment
Excerpt: Suction biopsies were taken from the duodenum of a child suffering from microvillus inclusion disease (MVID).

[2] = system: guinea pig intestinal epithelium; experiment: HRP flow over guinea pig intestinal epithelium in Ussing chamber, tight junctions opened by caprate; conditions: in vitro, FIG. 2
Protocol: Use was made of a model set-up for determination of the effect of the polysaccharides used.
A test animal, such as a rat or guinea pig, was brought under narcosis. The stomach wall was then opened and a piece of the ileum tied off. The intestinal tissue was removed and stripped of layers of muscle. The preparation thus obtained was then stretched between two compartments through which oxygenated solutions flowed (FIG. 1). The preparation was treated either with buffer (control or blank) or caprate in buffer in order to open the tight junctions (100% permeability) or with the combination of caprate and a certain concentration of polysaccharide in buffer. As a measure of the permeability the transport of HRP (horseradish peroxidase) over the preparation was determined in accordance with known methods.
The in vitro effect of dextran (70 kD) on the increased HRP flow caused by caprate in a guinea pig intestinal epithelium is shown in FIG. 2.

pig intestine = experiment: in situ ischaemia reperfusion model in pigs, HRP flow in jejunum segments; format: in vivo; conditions: 5.6 g/l in lumen during ischaemia, pig under full narcosis, caudal jejunum, FIG. 5
Protocol: The figure relates to experiments with a pig under full narcosis, in which segments of the caudal section of the jejunum were taken. The effect of 5.6 g/l dextran (70 kD)(D) in the in situ ischaemia reperfusion model in pigs as a function of the duration of ischaemia was determined in comparison with control (C) where no dextran was introduced into the lumen during ischaemia.

For dextran [dextran (70 kD)], the “HRP in the paracellular spaces or tight junctions by electron microscopy” value [1] was “No further HRP could be detected”, the “effect on the increased HRP flow caused by caprate” value [2] was “inhibition of the effects of caprate” and the “HRP flow in the pig intestine increased by ischaemia, compared with control” value (pig intestine) was “significant fall”.
